{"source": "patent US20070224128A1", "about": "“Drug adherence monitoring system” (priority 2006, published 2007)", "key": {"[1]": {"conditions": "cited from earlier work"}, "[2]": {"conditions": "water at 25° C.; cited from earlier work"}, "rat [3]": {"system": "rat", "conditions": "4H; cited from earlier work"}, "rat [4]": {"system": "rat", "conditions": "cited from earlier work"}, "human recombinant CYP2D6": {"biological_target": "human recombinant CYP2D6 (Homo sapiens, UniProt P10635)", "sequence (P10635 whole entry)": "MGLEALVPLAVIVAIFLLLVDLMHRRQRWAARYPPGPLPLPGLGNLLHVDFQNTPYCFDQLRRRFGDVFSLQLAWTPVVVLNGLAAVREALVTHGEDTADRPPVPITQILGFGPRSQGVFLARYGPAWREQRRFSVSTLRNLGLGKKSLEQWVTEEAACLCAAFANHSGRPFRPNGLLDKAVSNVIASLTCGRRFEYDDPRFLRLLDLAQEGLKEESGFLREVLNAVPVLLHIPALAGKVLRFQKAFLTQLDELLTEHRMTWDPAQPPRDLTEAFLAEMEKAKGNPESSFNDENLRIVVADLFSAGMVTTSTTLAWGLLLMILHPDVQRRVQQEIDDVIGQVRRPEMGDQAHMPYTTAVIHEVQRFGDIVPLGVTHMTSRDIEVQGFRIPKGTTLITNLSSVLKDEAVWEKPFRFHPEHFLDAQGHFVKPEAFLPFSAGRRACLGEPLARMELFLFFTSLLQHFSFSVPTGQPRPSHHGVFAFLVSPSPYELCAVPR", "description": "CYP 2D6 inhibition assays were performed by Novascreen (Hanover, Md.). In brief, after 100 μL solution containing the compounds (dextromethorphan or trifluoroethyldextrorphan, concentration ranging from 10^−10 M to 10^−5M) and mixed 50 μL cofactor solution were preincubated in 100 mM potassium phosphate buffer (pH=7.4) for 10 min at 37° C., 50 μL of freshly mixed solution of human recombinant CYP2D6 (1.5 pmole) and AMMC (1.5 μM) was added to each well. The final cofactor concentrations were 1.3 mM NADP^+, 3.3 mM glucose-6-phosphate, 0.4 U/ml glucose-6-phosphate dehydrogenase. Samples were incubated for 45 minutes and the reaction was stopped with 75 μL Tris/acetonitrile stop solution. Quinidine was used as the reference compound. The AMMC metabolite, AMHC, was measured using a fluorescent plate scanner at an excitation wavelength of 390 nm and emission wavelength of 460 nm."}, "human liver microsomes": {"system": "human liver microsomes", "experiment": "Human liver microsomes assay: trifluoroacetaldehyde captured from headspace, GC/MS", "conditions": "2 mg/mL human liver microsome, 1 mM trifluoroethyldextrorphan, 1.5 hours, determined as DNPH derivative", "quoted_text": "Microsomal incubations were conducted in 1.5 mL polypropylene vials containing 2 mg/mL human liver microsome, 5.2 mM NADP^+, 13.2 mM glucose-6-phosphate, 1.6 U/ml glucose-6-phosphate dehydrogenase, 6.6 mM magnesium chloride and 1 mM trifluoroethyldextrorphan in 100 mM potassium phosphate buffer (pH 7.5). The total volume was 1.5 mL.\nLpDNPH S10 cartridges were employed to collect trifluoroacetaldehyde produced from incubation mixture for 1.5 hours through suction generated by a 5 mL syringe. The incubations were performed in triplicate. […]\nA Thermo Finnigan Polaris Q Mass Spectrometer (MS) system (consists of a Polaris Q MS, a TRACE GC, and the Xcalibur Data System) was used. […] Negative chemical ionization (NCI) mode was used for identification and quantitation of trifluoroacetaldehyde 2,4-dinitrophenylhydrazone. […]\n[^15N4]trifluoroacetaldehyde 2,4-dinitrophenylhydrazone was used as an internal standard for the determination of trifluoroacetaldehyde as its DNPH derivative. Quantitation was performed by selected ion monitoring (SIM) of most intensive fragment ions trifluoroacetaldehyde 2,4-dinitrophenylhydrazone (m/z 182) against the internal standard [^15N4]trifluoroacetaldehyde 2,4-dinitrophenylhydrazone (m/z 185). […]\nThe fragment ions m/z 182 and 185 were monitored for quantitation. […]"}}, "note": "Where a name gives a salt, the structure may show the parent alone. Read-outs that look alike come from different tables or passages of the source."}
{"molecule": "OC(C(F)(F)F)(C(F)(F)F)C(F)(F)F", "note": "[R′3]", "values": [{"measurement": "VP", "setting": "[1]; at 20° C.", "result": 268, "unit": "torr"}, {"measurement": "Solubility", "setting": "[2]", "result": "39,200 mg/L"}]}
{"molecule": "OC(C(F)(F)F)C(F)(F)F", "note": "[R′4]", "values": [{"measurement": "VP", "setting": "[1]; at 20° C.", "result": 102, "unit": "torr"}, {"measurement": "VP", "setting": "[1]; at 25° C.", "result": 159, "unit": "torr"}, {"measurement": "Solubility", "setting": "[2]", "result": 7770, "unit": "mg/L"}, {"measurement": "LC50 Inhalation rat", "setting": "rat [3]", "result": 1974, "unit": "ppm/4H"}, {"measurement": "LD50 Oral rat", "setting": "rat [4]", "result": "1040 to 1500", "unit": "mg/kg"}]}
{"molecule": "COc1ccc2c(c1)[C@]13CCCC[C@@H]1[C@H](C2)N(C)CC3", "note": "[dextromethorphan, Dextromethorphan hydrobromide, reference compound]", "values": [{"measurement": "potency to inhibit AMMC metabolism", "setting": "human recombinant CYP2D6", "result": "similar"}]}
{"molecule": "CN1CC[C@@]23CCCC[C@@H]2[C@@H]1Cc1ccc(OCC(F)(F)F)cc13", "note": "[trifluoroethyldextrorphan, O-trifluoroethyldextrorphan]", "values": [{"measurement": "potency to inhibit AMMC metabolism", "setting": "human recombinant CYP2D6; human recombinant CYP2D6 1.5 pmole, AMMC 1.5 μM, compounds 10^−10 M to 10^−5 M, 45 minutes, FIG. 5", "result": "similar"}, {"measurement": "trifluoroacetaldehyde captured from the headspace of the microsomal incubation mixture", "setting": "human liver microsomes", "result": 120, "unit": "ng"}]}
